Measured values: patent publication US11358967B2 (Boehringer Ingelheim International GmbH, priority 2016, dated 2022)

Target: T1, RORγ (Homo sapiens, UniProt P51449)
T1 construct: expressed in transfected cells; host or cells: HEK 293 cells, transiently transfected
T1 sequence (P51449 269-508 limits assumed): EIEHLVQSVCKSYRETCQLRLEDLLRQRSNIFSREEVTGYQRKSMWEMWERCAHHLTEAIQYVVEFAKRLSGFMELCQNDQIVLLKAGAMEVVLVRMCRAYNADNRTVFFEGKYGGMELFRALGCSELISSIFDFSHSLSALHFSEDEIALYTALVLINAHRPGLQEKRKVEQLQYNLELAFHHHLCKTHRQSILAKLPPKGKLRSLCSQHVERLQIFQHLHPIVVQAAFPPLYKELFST
Assay: Reporter Gene Assay (RGA): RORγ transactivation of a luciferase reporter in transiently transfected HEK 293 cells
Assay type: cell-based
Settings: HEK 293 cells cotransfected with pGL4.3 luc2P/GAL4UAS and pBIND Gal4DBD hRORC LBD; 20-24 h incubation; luciferase readout
Procedure: Reporter Gene Assay (RGA)
A nuclear receptor transactivation assay is performed to quantitate the ability of test compounds to inhibit RORγ transactivation of a luciferase reporter. […] The system uses transiently transfected HEK 293 cells cotransfected with two plasmids (pGL4.3, luc2P/GAL4UAS/Hygro, and pBIND, Gal4DBD hRORC LBD1-3). The positive control is co-transiently transfected with both plasmids, and the negative control contains the pGL4.3 promoter sequence. Assays are assembled in 384 well plates where transiently transfected cells and test compound at varying concentrations are incubated for 20-24 h. The next day, assays plates are taken out and equilibrated at RT for 20-30 minutes. Bright-Glo™ Luciferase Assay System is used to detect Luciferase production. After addition of Bright GLO detection reagent, the plates are incubated at RT for 20 minutes. The plates are read on an Envision plate reader to measure luminescence signal. The RLU signal is converted to POC relative to control and blank wells.
Compound Dilution Buffer:
Bright Glo Luciferase Assay System: Promega #E2620
Thaw lysis buffer provided in kit, add 100 mL lysis buffer to substrate powder.

SMILES | IC50
CCS(=O)(=O)c1ccc(CNc2nc3ncc(-c4c(OC)ncnc4C4CC4)nc3n([C@@H](C)C3CC3)c2=O)nc1 [Example 3] | 149 nM
CCS(=O)(=O)c1ccc(CNc2nc3ncc(-c4c(C)ncnc4C4CC4)nc3n([C@@H](C)C3CC3)c2=O)nc1 [Example 4] | 269 nM
CCS(=O)(=O)c1ccc(CNc2nc3ncc(-c4c(C)nc(N)nc4C4CC4)nc3n([C@@H](C)C3CC3)c2=O)nc1 [Example 5] | 274 nM
CCS(=O)(=O)c1ccc(CNc2nc3ncc(-c4nccnc4C4CC4)nc3n([C@@H](C)C3CC3)c2=O)nc1 [Example 6] | 454 nM
CC[C@H](C)n1c(=O)c(NCc2ccc(S(=O)(=O)CC)cn2)nc2ncc(-c3c(OC)ncnc3C3CC3)nc21 [Example 7] | 210 nM
CC[C@H](C)n1c(=O)c(NCc2ccc(S(=O)(=O)CC)cn2)nc2ncc(-c3c(C)ncnc3C3CC3)nc21 [Example 8] | 338 nM
CC[C@H](C)n1c(=O)c(NCc2ccc(S(C)(=O)=O)cn2)nc2ncc(-c3c(C)ncnc3C3CC3)nc21 [Example 9] | 1330 nM
CC[C@H](C)n1c(=O)c(NCc2ccc(S(=O)(=O)CC)nc2)nc2ncc(-c3c(C)ncnc3C3CC3)nc21 [Example 10] | 2740 nM
CCS(=O)(=O)c1ccc(CNc2nc3nnc(-c4c(C)ncnc4C4CC4)cc3n([C@@H](C)C3CC3)c2=O)nc1 [Example 12] | 2900 nM
